Test results published in ChEMBL document CHEMBL1201862, “PubChem BioAssay data set” (2004).
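Five concentrations, 48 hours, 96-well plates. Abbreviation: GI50, concentration required for 50% inhibition of growth.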 Calls of active or inactive are those of the source. No stated cut-off is given here; in the data, active = GI50 up to about 1.1 µM and inactive = higher.

Assays:
Test in all cases: DTP human tumour cell line panel, 48 h
NCI-H522 = tested on: NCI-H522
PC-3 = tested on: PC-3
A498 = tested on: A498
HCT-15 = tested on: HCT-15
EKVX = tested on: EKVX
SNB-75 = tested on: SNB-75
UACC-257 = tested on: UACC-257
SK-MEL-2 = tested on: SK-MEL-2
SN12C = tested on: SN12C
MDA-N = tested on: MDA-N
HCT-116 = tested on: HCT-116
OVCAR-3 = tested on: OVCAR-3
RXF 393 = tested on: RXF 393
ACHN = tested on: ACHN
BT-549 = tested on: BT-549
SF-268 = tested on: SF-268
K562 = tested on: K562
NCI-H460 = tested on: NCI-H460
SNB-19 = tested on: SNB-19
UO-31 = tested on: UO-31
RPMI-8226 = tested on: RPMI-8226
NCI-H23 = tested on: NCI-H23
HOP-92 = tested on: HOP-92
SW-620 = tested on: SW-620
NCI/ADR-RES = tested on: NCI/ADR-RES
HOP-62 = tested on: HOP-62
OVCAR-5 = tested on: OVCAR-5
SF-295 = tested on: SF-295
SF-539 = tested on: SF-539
SK-OV-3 = tested on: SK-OV-3
T47D = tested on: T47D
CAKI-1 = tested on: CAKI-1
MCF7 = tested on: MCF7
COLO 205 = tested on: COLO 205
SK-MEL-28 = tested on: SK-MEL-28
MDA-MB-435 = tested on: MDA-MB-435
OVCAR-4 = tested on: OVCAR-4
IGROV-1 = tested on: IGROV-1
A549 = tested on: A549
KM12 = tested on: KM12
HCC 2998 = tested on: HCC 2998
786-0 = tested on: 786-0
MDA-MB-231 = tested on: MDA-MB-231
MOLT-4 = tested on: MOLT-4
LOX IMVI = tested on: LOX IMVI
M14 = tested on: M14
TK-10 = tested on: TK-10
SK-MEL-5 = tested on: SK-MEL-5
NCI-H226 = tested on: NCI-H226

Brc1cccc(C2(CCCC3(c4cccc(Br)n4)OCCO3)OCCO2)n1
GI50 (NCI-H522): 36.6 µM (inactive)
GI50 (PC-3): > 100 µM (inactive)
GI50 (A498): > 100 µM (inactive)
GI50 (HCT-15): > 100 µM
GI50 (EKVX): > 100 µM (inactive)
GI50 (SNB-75): 23.9 µM (inactive)
GI50 (UACC-257): > 100 µM (inactive)
GI50 (SK-MEL-2): > 100 µM (inactive)
GI50 (SN12C): > 100 µM (inactive)
GI50 (MDA-N): > 100 µM (inactive)
GI50 (HCT-116): > 100 µM (inactive)
GI50 (OVCAR-3): > 100 µM (inactive)
GI50 (RXF 393): 72.4 µM (inactive)
GI50 (ACHN): > 100 µM (inactive)
GI50 (BT-549): > 100 µM (inactive)
GI50 (SF-268): 21.2 µM (inactive)
GI50 (K562): > 100 µM (inactive)
GI50 (NCI-H460): > 100 µM (inactive)
GI50 (SNB-19): > 100 µM (inactive)
GI50 (UO-31): > 100 µM (inactive)
GI50 (RPMI-8226): > 100 µM (inactive)
GI50 (NCI-H23): > 100 µM (inactive)
GI50 (HOP-92): > 100 µM (inactive)
GI50 (SW-620): > 100 µM (inactive)
GI50 (NCI/ADR-RES): > 100 µM (inactive)
GI50 (HOP-62): > 100 µM (inactive)
GI50 (OVCAR-5): > 100 µM (inactive)
GI50 (SF-295): 68.7 µM (inactive)
GI50 (SF-539): 39.2 µM (inactive)
GI50 (SK-OV-3): > 100 µM (inactive)
GI50 (T47D): > 100 µM (inactive)
GI50 (CAKI-1): > 100 µM (inactive)
GI50 (MCF7): > 100 µM (inactive)
GI50 (COLO 205): > 100 µM (inactive)
GI50 (SK-MEL-28): > 100 µM (inactive)
GI50 (MDA-MB-435): > 100 µM (inactive)
GI50 (OVCAR-4): > 100 µM (inactive)
GI50 (IGROV-1): > 100 µM (inactive)
GI50 (A549): > 100 µM (inactive)
GI50 (KM12): > 100 µM (inactive)
GI50 (HCC 2998): > 100 µM (inactive)
GI50 (786-0): 59.7 µM (inactive)
GI50 (MDA-MB-231): > 100 µM (inactive)
GI50 (MOLT-4): > 100 µM (inactive)
GI50 (LOX IMVI): > 100 µM (inactive)
GI50 (M14): > 100 µM (inactive)
GI50 (TK-10): > 100 µM (inactive)
GI50 (SK-MEL-5): > 100 µM (inactive)
GI50 (NCI-H226): > 100 µM (inactive)
